Source: patent US20240182513A1, “SEPARATION OF METAL IONS FROM A SAMPLE USING GLYCOLIPIDS” (ARIZONA BOARD OF REGENTS ON BEHALF OF THE UNIVERSITY OF …, priority 2021, published 2024)

Columns and labels:
[1] = Example 2.1 rhamnolipid precipitation, filtration, centrifugation: lead; settings: for Treatment 2: Rhamnolipid and Filtration Cf / Treatment 3: Rhamnolipid and Centrifugation Cc / Treatment 1: Rhamnolipid Only Cr: lead concentration after treatment; for Treatment 2: Rhamnolipid and Filtration (Rf) efficiency of removal / Treatment 3: Rhamnolipid and Centrifugation (Rc) efficiency of removal / Treatment 1: Rhamnolipid Only (Rr) efficiency of removal: lead
Description: (§1) Structural variants of synthetic glycolipids were used to show the effect of the number and length of the hydrophobic tail(s) on rhamnolipid as a chemical precipitant. […] Solutions (10 mM) were made using nanopure water (≥18 MΩ-cm) then adjusted to a pH of 6.9±0.05 with HNO3 and NaOH. These solutions were made in advance and stored in the cold room for up to one month. They were brought to room temperature before each experiment.
(§2) Three metals were tested for binding with rhamnolipid. Lead as […] (Fisher Scientific, Waltham, MA, 99% purity), was chosen to represent a metal with high rhamnolipid-metal conditional stability constant; lanthanum as La(NO3)3 6(H2O) (Sigma-Aldrich, St. Louis, MO, 99.99% purity) was chosen as a representative REE; and magnesium as Mg(NO3)2 6(H2O) (Sigma-Aldrich, St. Louis, MO, 99% purity) was chosen to represent a metal with a low rhamnolipid-metal conditional stability constant (Hogan et al., 2017). Metal solutions (5 mM) were made using nanopure water (≥18 MΩ-cm) in 20 ml glass scintillation vials. All solutions were used within 15 min to ensure minimal adsorption to the glass vial.
(§3) Three glycolipid-based treatments were evaluated to remove metal from solution: (1) the addition of glycolipid with no further treatment (gravitational precipitation), (2) the addition of a glycolipid followed by filtration or (3) the addition of a glycolipid followed by centrifugation. Each metal (Pb, La, and Mg) was evaluated separately with each of the glycolipid structures. For each experiment, a metal solution was mixed with a glycolipid solution in a 1.7 ml reaction tube at varying molar ratios of glycolipid to metal: 0:1 (glycolipid-free control), 2:1, 5:1, and 10:1. The reactions were mixed in the order of nanopure water (≥18 MΩ-cm), glycolipid solution (10 mM), then metal solution (5 mM). The metal and glycolipid solutions were continuously stirred as they were aliquoted into the reaction tubes. The experiment was performed in triplicate.
(§4) The reaction tubes were mixed overnight (16 to 24 h) and then three samples were collected from each tube to measure the effect of each of the three treatments: a glycolipid only treatment sample, a filtration treatment sample, and a centrifugation treatment sample. Briefly, for the glycolipid only treatment samples all tubes were vortexed for approximately 5 sec immediately before removing 0.1 ml into a dilution tube of 2% trace metal grade nitric acid (12 to 14 ml) to minimize the settling of particles. For the filtration samples each reaction tube was vortexed for 5 sec and then a 0.6 ml aliquot was collected with a 1 ml syringe. A GHP acrodisc disk filter (hydrophilic polypropylene membrane, 0.45 μm pore size, 25 mm disc diameter) from Pall Life Sciences (Port Washington, New York) was then placed onto the end of the syringe and the solution was pushed through the filter. The void space in the disk filter holds approximately 0.5 ml, therefore around 0.1 ml of filtrate was collected into a dilution tube. For the centrifugation sample, the remaining solution was centrifuged at 10,000 RCF for 15 min. Approximately 0.1 ml of the supernatant was aliquoted into a dilution tube. Following collection, all samples were taken for metal analysis using ICP-MS.

[2] = Example 2.1 rhamnolipid precipitation, filtration, centrifugation: magnesium; settings: for Treatment 2: Rhamnolipid and Filtration Cf / Treatment 3: Rhamnolipid and Centrifugation Cc / Treatment 1: Rhamnolipid Only Cr: magnesium concentration after treatment; for Treatment 1: Rhamnolipid Only (Rr) efficiency of removal / Treatment 2: Rhamnolipid and Filtration (Rf) efficiency of removal / Treatment 3: Rhamnolipid and Centrifugation (Rc) efficiency of removal: magnesium
Description: as §1, §2, §3, §4

[3] = Example 2.1 rhamnolipid precipitation, filtration, centrifugation: lanthanum; settings: for Treatment 2: Rhamnolipid and Filtration Cf / Treatment 3: Rhamnolipid and Centrifugation Cc / Treatment 1: Rhamnolipid Only Cr: lanthanum concentration after treatment; for Treatment 2: Rhamnolipid and Filtration (Rf) efficiency of removal / Treatment 1: Rhamnolipid Only (Rr) efficiency of removal / Treatment 3: Rhamnolipid and Centrifugation (Rc) efficiency of removal: lanthanum
Description: as §1, §2, §3, §4

[4] = molar ratio rhamnolipid:lead 2 to 1
[5] = molar ratio rhamnolipid:magnesium 2 to 1
[6] = molar ratio rhamnolipid:lanthanum 2 to 1

## CCCC(CC(=O)O)OC1O[C@@H](C)[C@H](O)[C@@H](O)[C@H]1O (stereo partly shown) [Rha C6]
[1]; molar ratio 2 to 1
  Treatment 2: Rhamnolipid and Filtration Cf: 0.115 ± 0.022 mmol/L
  Treatment 3: Rhamnolipid and Centrifugation Cc: 0.313 ± 0.003 mmol/L
  Treatment 2: Rhamnolipid and Filtration (Rf) efficiency of removal: (64.0%)
  Treatment 3: Rhamnolipid and Centrifugation (Rc) efficiency of removal: (2.2%)
[1]; molar ratio 5 to 1
  Treatment 1: Rhamnolipid Only Cr: 0.329 ± 0.014 mmol/L
  Treatment 2: Rhamnolipid and Filtration Cf: 0.046 ± 0.017 mmol/L
  Treatment 3: Rhamnolipid and Centrifugation Cc: 0.322 ± 0.004 mmol/L
  Treatment 2: Rhamnolipid and Filtration (Rf) efficiency of removal: (85.8%)
[1]; molar ratio 10 to 1
  Treatment 1: Rhamnolipid Only Cr: 0.316 ± 0.008 mmol/L
  Treatment 2: Rhamnolipid and Filtration Cf: 0.119 ± 0.018 mmol/L
  Treatment 3: Rhamnolipid and Centrifugation Cc: 0.323 ± 0.005 mmol/L
  Treatment 1: Rhamnolipid Only (Rr) efficiency of removal: (1.4%)
  Treatment 2: Rhamnolipid and Filtration (Rf) efficiency of removal: (62.7%)
[1]; [4]
  Treatment 1: Rhamnolipid Only Cr: 0.323 ± 0.005 mmol/L
[2]; molar ratio 2 to 1
  Treatment 2: Rhamnolipid and Filtration Cf: 0.202 ± 0.016 mmol/L
  Treatment 3: Rhamnolipid and Centrifugation Cc: 0.265 ± 0.010 mmol/L
  Treatment 1: Rhamnolipid Only (Rr) efficiency of removal: (7.6%)
  Treatment 2: Rhamnolipid and Filtration (Rf) efficiency of removal: (24.5%)
  Treatment 3: Rhamnolipid and Centrifugation (Rc) efficiency of removal: (0.9%)
[2]; molar ratio 5 to 1
  Treatment 1: Rhamnolipid Only Cr: 0.248 ± 0.013 mmol/L
  Treatment 2: Rhamnolipid and Filtration Cf: 0.178 ± 0.020 mmol/L
  Treatment 3: Rhamnolipid and Centrifugation Cc: 0.255 ± 0.001 mmol/L
  Treatment 1: Rhamnolipid Only (Rr) efficiency of removal: (7.3%)
  Treatment 2: Rhamnolipid and Filtration (Rf) efficiency of removal: (33.4%)
  Treatment 3: Rhamnolipid and Centrifugation (Rc) efficiency of removal: (4.9%)
[2]; molar ratio 10 to 1
  Treatment 1: Rhamnolipid Only Cr: 0.258 ± 0.011 mmol/L
  Treatment 2: Rhamnolipid and Filtration Cf: 0.165 ± 0.001 mmol/L
  Treatment 3: Rhamnolipid and Centrifugation Cc: 0.272 ± 0.016 mmol/L
  Treatment 1: Rhamnolipid Only (Rr) efficiency of removal: (3.6%)
  Treatment 2: Rhamnolipid and Filtration (Rf) efficiency of removal: (38.2%)
[2]; [5]
  Treatment 1: Rhamnolipid Only Cr: 0.247 ± 0.014 mmol/L
[3]; molar ratio 2 to 1
  Treatment 2: Rhamnolipid and Filtration Cf: 0.143 ± 0.062 mmol/L
  Treatment 3: Rhamnolipid and Centrifugation Cc: 0.324 ± 0.018 mmol/L
  Treatment 2: Rhamnolipid and Filtration (Rf) efficiency of removal: (51.8%)
[3]; molar ratio 5 to 1
  Treatment 1: Rhamnolipid Only Cr: 0.282 ± 0.026 mmol/L
  Treatment 2: Rhamnolipid and Filtration Cf: 0.106 ± 0.026 mmol/L
  Treatment 3: Rhamnolipid and Centrifugation Cc: 0.320 ± 0.024 mmol/L
  Treatment 1: Rhamnolipid Only (Rr) efficiency of removal: (5.2%)
  Treatment 2: Rhamnolipid and Filtration (Rf) efficiency of removal: (64.4%)
[3]; molar ratio 10 to 1
  Treatment 1: Rhamnolipid Only Cr: 0.332 ± 0.040 mmol/L
  Treatment 2: Rhamnolipid and Filtration Cf: 0.114 ± 0.064 mmol/L
  Treatment 3: Rhamnolipid and Centrifugation Cc: 0.294 ± 0.010 mmol/L
  Treatment 2: Rhamnolipid and Filtration (Rf) efficiency of removal: (61.6%)
  Treatment 3: Rhamnolipid and Centrifugation (Rc) efficiency of removal: (1.1%)
[3]; [6]
  Treatment 1: Rhamnolipid Only Cr: 0.325 ± 0.026 mmol/L

## CCCCCCCCCCCC(CC(=O)O)OC1O[C@@H](C)[C@H](O)[C@@H](O)[C@H]1O (stereo partly shown) [Rha C14]
[1]; molar ratio 2 to 1
  Treatment 2: Rhamnolipid and Filtration Cf: 0.031 ± 0.030 mmol/L
  Treatment 3: Rhamnolipid and Centrifugation Cc: 0.194 ± 0.006 mmol/L
  Treatment 1: Rhamnolipid Only (Rr) efficiency of removal: (13.3%)
  Treatment 2: Rhamnolipid and Filtration (Rf) efficiency of removal: (90.2%)
  Treatment 3: Rhamnolipid and Centrifugation (Rc) efficiency of removal: (39.4%)
[1]; molar ratio 5 to 1
  Treatment 1: Rhamnolipid Only Cr: 0.315 ± 0.004 mmol/L
  Treatment 2: Rhamnolipid and Filtration Cf: 0.000 ± 0.000 mmol/L
  Treatment 3: Rhamnolipid and Centrifugation Cc: 0.315 ± 0.006 mmol/L
  Treatment 1: Rhamnolipid Only (Rr) efficiency of removal: (1.6%)
  Treatment 2: Rhamnolipid and Filtration (Rf) efficiency of removal: (100.0%)
  Treatment 3: Rhamnolipid and Centrifugation (Rc) efficiency of removal: (1.8%)
[1]; molar ratio 10 to 1
  Treatment 1: Rhamnolipid Only Cr: 0.311 ± 0.008 mmol/L
  Treatment 2: Rhamnolipid and Filtration Cf: 0.001 ± 0.001 mmol/L
  Treatment 3: Rhamnolipid and Centrifugation Cc: 0.327 ± 0.001 mmol/L
  Treatment 1: Rhamnolipid Only (Rr) efficiency of removal: (3.0%)
  Treatment 2: Rhamnolipid and Filtration (Rf) efficiency of removal: (99.7%)
[1]; [4]
  Treatment 1: Rhamnolipid Only Cr: 0.278 ± 0.011 mmol/L
[2]; molar ratio 2 to 1
  Treatment 2: Rhamnolipid and Filtration Cf: 0.147 ± 0.045 mmol/L
  Treatment 3: Rhamnolipid and Centrifugation Cc: 0.292 ± 0.008 mmol/L
  Treatment 2: Rhamnolipid and Filtration (Rf) efficiency of removal: (45.0%)
[2]; molar ratio 5 to 1
  Treatment 1: Rhamnolipid Only Cr: 0.300 ± 0.018 mmol/L
  Treatment 2: Rhamnolipid and Filtration Cf: 0.088 ± 0.042 mmol/L
  Treatment 3: Rhamnolipid and Centrifugation Cc: 0.279 ± 0.016 mmol/L
  Treatment 2: Rhamnolipid and Filtration (Rf) efficiency of removal: (66.9%)
[2]; molar ratio 10 to 1
  Treatment 1: Rhamnolipid Only Cr: 0.302 ± 0.017 mmol/L
  Treatment 2: Rhamnolipid and Filtration Cf: 0.009 ± 0.004 mmol/L
  Treatment 3: Rhamnolipid and Centrifugation Cc: 0.219 ± 0.021 mmol/L
  Treatment 2: Rhamnolipid and Filtration (Rf) efficiency of removal: (96.6%)
[2]; [5]
  Treatment 1: Rhamnolipid Only Cr: 0.291 ± 0.005 mmol/L
[3]; molar ratio 2 to 1
  Treatment 2: Rhamnolipid and Filtration Cf: 0.164 ± 0.058 mmol/L
  Treatment 3: Rhamnolipid and Centrifugation Cc: 0.221 ± 0.014 mmol/L
  Treatment 1: Rhamnolipid Only (Rr) efficiency of removal: (16.9%)
  Treatment 2: Rhamnolipid and Filtration (Rf) efficiency of removal: (44.9%)
  Treatment 3: Rhamnolipid and Centrifugation (Rc) efficiency of removal: (25.8%)
[3]; molar ratio 5 to 1
  Treatment 1: Rhamnolipid Only Cr: 0.215 ± 0.024 mmol/L
  Treatment 2: Rhamnolipid and Filtration Cf: 0.044 ± 0.007 mmol/L
  Treatment 3: Rhamnolipid and Centrifugation Cc: 0.094 ± 0.002 mmol/L
  Treatment 1: Rhamnolipid Only (Rr) efficiency of removal: (27.7%)
  Treatment 2: Rhamnolipid and Filtration (Rf) efficiency of removal: (85.3%)
  Treatment 3: Rhamnolipid and Centrifugation (Rc) efficiency of removal: (68.5%)
[3]; molar ratio 10 to 1
  Treatment 1: Rhamnolipid Only Cr: 0.314 ± 0.016 mmol/L
  Treatment 2: Rhamnolipid and Filtration Cf: 0.0 ± 0.000 mmol/L
  Treatment 3: Rhamnolipid and Centrifugation Cc: 0.006 ± 0.001 mmol/L
  Treatment 2: Rhamnolipid and Filtration (Rf) efficiency of removal: 1.0 (99.9%)
  Treatment 3: Rhamnolipid and Centrifugation (Rc) efficiency of removal: (98.0%)
[3]; [6]
  Treatment 1: Rhamnolipid Only Cr: 0.247 ± 0.034 mmol/L
